From the NIST ThermoML archive (doi:10.1016/j.fluid.2009.11.007)

Experiment: xn = mol fraction of the nth substance listed
Details: Gas, Vibrating tube method

CCCCCCCCCCCCCCCC(=O)O [hexadecanoic acid] + O=C=O
Details | mass density [kg/m3]
313 K, 12110 kPa, x1 = 0.0003534 | 724.5
313 K, 12150 kPa, x1 = 0.0003534 | 725.8
313 K, 12360 kPa, x1 = 0.0003534 | 731.2
313 K, 12530 kPa, x1 = 0.0003534 | 735.3
313 K, 12770 kPa, x1 = 0.0003534 | 741
313 K, 12930 kPa, x1 = 0.0003534 | 744.7
313 K, 13150 kPa, x1 = 0.0003534 | 749.3
313 K, 13330 kPa, x1 = 0.0003534 | 753
313 K, 13680 kPa, x1 = 0.0003534 | 759.8
313 K, 13940 kPa, x1 = 0.0003534 | 764.4
313 K, 14120 kPa, x1 = 0.0003534 | 767.7
313 K, 14410 kPa, x1 = 0.0003534 | 772.7
313 K, 14570 kPa, x1 = 0.0004968 | 774.5
313 K, 14650 kPa, x1 = 0.0003534 | 776.6
313 K, 14940 kPa, x1 = 0.0005357 | 780.5
313 K, 14960 kPa, x1 = 0.0004968 | 780.9
313 K, 15030 kPa, x1 = 0.0003534 | 782.7
313 K, 15570 kPa, x1 = 0.0003534 | 790.5
313 K, 15970 kPa, x1 = 0.0004968 | 795.6
313 K, 16020 kPa, x1 = 0.0005357 | 795.7
313 K, 16050 kPa, x1 = 0.0003534 | 797
313 K, 16230 kPa, x1 = 0.0005357 | 798.5
313 K, 16430 kPa, x1 = 0.0005357 | 801.3
313 K, 16610 kPa, x1 = 0.0005357 | 803.4
313 K, 16820 kPa, x1 = 0.0005357 | 806
313 K, 17030 kPa, x1 = 0.0005357 | 808.5
313 K, 17040 kPa, x1 = 0.0003534 | 810.1
313 K, 17070 kPa, x1 = 0.0006302 | 809.1
313 K, 17120 kPa, x1 = 0.0004968 | 810
313 K, 17500 kPa, x1 = 0.0006302 | 814.3
313 K, 17610 kPa, x1 = 0.0006348 | 816.9
313 K, 17620 kPa, x1 = 0.0004968 | 815.9
313 K, 17810 kPa, x1 = 0.0006348 | 819
313 K, 17970 kPa, x1 = 0.0006302 | 819.5
313 K, 18010 kPa, x1 = 0.0006348 | 821
313 K, 18030 kPa, x1 = 0.0003534 | 821.3
313 K, 18050 kPa, x1 = 0.0004968 | 820.6
313 K, 18070 kPa, x1 = 0.0005357 | 820
313 K, 18180 kPa, x1 = 0.0006348 | 823.1
313 K, 18300 kPa, x1 = 0.0006348 | 824.3
313 K, 18400 kPa, x1 = 0.0006348 | 825.2
313 K, 18510 kPa, x1 = 0.0006348 | 826.4
313 K, 18600 kPa, x1 = 0.0006348 | 827.4
313 K, 18700 kPa, x1 = 0.0006348 | 828.4
313 K, 18790 kPa, x1 = 0.0006348 | 829.4
313 K, 18910 kPa, x1 = 0.0006348 | 830.6
313 K, 18990 kPa, x1 = 0.0006302 | 830.2
313 K, 19000 kPa, x1 = 0.0004968 | 830.5
313 K, 19040 kPa, x1 = 0.0003534 | 831.8
313 K, 19070 kPa, x1 = 0.0005357 | 830.9
313 K, 19070 kPa, x1 = 0.0006348 | 832.2
313 K, 19960 kPa, x1 = 0.0004968 | 839.8
313 K, 19990 kPa, x1 = 0.0006302 | 839.7
313 K, 20050 kPa, x1 = 0.0003534 | 841.4
313 K, 20060 kPa, x1 = 0.0005357 | 840.4
313 K, 20090 kPa, x1 = 0.0006348 | 841.8
313 K, 20150 kPa, x1 = 0.0007923 | 843.3
313 K, 20300 kPa, x1 = 0.0007923 | 844.6
313 K, 20540 kPa, x1 = 0.0007923 | 846.7
313 K, 20740 kPa, x1 = 0.0007923 | 848.5
313 K, 20940 kPa, x1 = 0.0007923 | 850.2
313 K, 21000 kPa, x1 = 0.0006302 | 848.7
313 K, 21010 kPa, x1 = 0.0006348 | 849.8
313 K, 21020 kPa, x1 = 0.0004968 | 849.3
313 K, 21040 kPa, x1 = 0.0003534 | 850.3
313 K, 21050 kPa, x1 = 0.0005357 | 849.1
313 K, 21120 kPa, x1 = 0.0007923 | 851.7
313 K, 21300 kPa, x1 = 0.0007923 | 853.3
313 K, 21520 kPa, x1 = 0.0007923 | 855
313 K, 21700 kPa, x1 = 0.0008682 | 855
313 K, 21710 kPa, x1 = 0.0007923 | 856.7
313 K, 21970 kPa, x1 = 0.0007923 | 858.7
313 K, 21980 kPa, x1 = 0.0003534 | 858
313 K, 22020 kPa, x1 = 0.0004968 | 857.5
313 K, 22020 kPa, x1 = 0.0006348 | 858.2
313 K, 22020 kPa, x1 = 0.0008682 | 857.3
313 K, 22030 kPa, x1 = 0.0005357 | 857.3
313 K, 22050 kPa, x1 = 0.0006302 | 857.5
313 K, 22230 kPa, x1 = 0.0007923 | 860.8
313 K, 22470 kPa, x1 = 0.0008682 | 861
313 K, 22650 kPa, x1 = 0.0007923 | 864
313 K, 22790 kPa, x1 = 0.0004968 | 863.5
313 K, 22910 kPa, x1 = 0.0007923 | 865.9
313 K, 22930 kPa, x1 = 0.0008981 | 864.8
313 K, 22990 kPa, x1 = 0.0003534 | 866
313 K, 23000 kPa, x1 = 0.0006302 | 864.9
313 K, 23030 kPa, x1 = 0.0005357 | 865.1
313 K, 23050 kPa, x1 = 0.0006348 | 866
313 K, 23070 kPa, x1 = 0.0008682 | 865.7
313 K, 23280 kPa, x1 = 0.0008981 | 867.3
313 K, 23520 kPa, x1 = 0.0007923 | 868.9
313 K, 23550 kPa, x1 = 0.0008682 | 869.1
313 K, 23570 kPa, x1 = 0.0008981 | 869.5
313 K, 23790 kPa, x1 = 0.0006348 | 871.5
313 K, 23810 kPa, x1 = 0.0008981 | 871.1
313 K, 23990 kPa, x1 = 0.0005357 | 872.2
313 K, 24000 kPa, x1 = 0.0006302 | 872.3
313 K, 24010 kPa, x1 = 0.0004968 | 872.7
313 K, 24010 kPa, x1 = 0.0008981 | 872.6
313 K, 24020 kPa, x1 = 0.0007923 | 871.6
313 K, 24040 kPa, x1 = 0.0008682 | 872.7
313 K, 24050 kPa, x1 = 0.0003534 | 873.7
313 K, 24460 kPa, x1 = 0.0008682 | 875.8
313 K, 24640 kPa, x1 = 0.0005357 | 876.7
313 K, 24740 kPa, x1 = 0.0006302 | 877.4
313 K, 24780 kPa, x1 = 0.0008981 | 877.9
313 K, 25030 kPa, x1 = 0.0004968 | 879.6
318 K, 10140 kPa, x1 = 0.0001436 | 535.9
318 K, 10290 kPa, x1 = 0.0001436 | 551.9
318 K, 10550 kPa, x1 = 0.0001436 | 577.8
318 K, 10890 kPa, x1 = 0.0001436 | 604.2
318 K, 11230 kPa, x1 = 0.0001436 | 626.2
318 K, 11520 kPa, x1 = 0.0001436 | 641.2
318 K, 11870 kPa, x1 = 0.0001436 | 657.3
318 K, 12190 kPa, x1 = 0.0001436 | 670.6
318 K, 12480 kPa, x1 = 0.0001436 | 680.9
318 K, 12820 kPa, x1 = 0.0001436 | 692
318 K, 13110 kPa, x1 = 0.0001436 | 700.3
318 K, 13390 kPa, x1 = 0.0001436 | 708.3
318 K, 13730 kPa, x1 = 0.0001436 | 716.8
318 K, 14030 kPa, x1 = 0.0001436 | 723.9
318 K, 14520 kPa, x1 = 0.0001436 | 734.8
318 K, 14990 kPa, x1 = 0.0001436 | 744
318 K, 16050 kPa, x1 = 0.0001436 | 762.8
318 K, 17010 kPa, x1 = 0.0001436 | 777.4
318 K, 17690 kPa, x1 = 0.0001436 | 786.8
318 K, 18080 kPa, x1 = 0.0001436 | 791.8
318 K, 18990 kPa, x1 = 0.0001436 | 802.8
318 K, 19750 kPa, x1 = 0.0001436 | 811.4
318 K, 21720 kPa, x1 = 0.001828 | 831.3
318 K, 21990 kPa, x1 = 0.001828 | 833.9
318 K, 22510 kPa, x1 = 0.001828 | 838.4
318 K, 23010 kPa, x1 = 0.001828 | 842.7
318 K, 23350 kPa, x1 = 0.001112 | 845.5
318 K, 23520 kPa, x1 = 0.001828 | 846.9
318 K, 23920 kPa, x1 = 0.001112 | 849.8
318 K, 24050 kPa, x1 = 0.001112 | 850.8
318 K, 24050 kPa, x1 = 0.001828 | 850.9
318 K, 24090 kPa, x1 = 0.001112 | 851.1
318 K, 24270 kPa, x1 = 0.001112 | 852.5
318 K, 24430 kPa, x1 = 0.001112 | 853.7
318 K, 24510 kPa, x1 = 0.001112 | 854.2
318 K, 24560 kPa, x1 = 0.001828 | 854.7
318 K, 24610 kPa, x1 = 0.001112 | 855
318 K, 24770 kPa, x1 = 0.001112 | 856.3
318 K, 24930 kPa, x1 = 0.001112 | 857.5
318 K, 25040 kPa, x1 = 0.001112 | 858.3
